From US10736883B2, “Triazole furan compounds as agonists of the APJ receptor” (AMGEN INC., priority 2016, dated 2020)

Biological target: APJ receptor (Homo sapiens (Human), UniProt P35414)
Experiment: [35S]GTPγS binding assay on membranes from CHO cells stably expressing human APJ receptor
Assay type: biochemical
Settings: membranes of CHO cells stably expressing human APJ receptor, means of several independent experiments, read-out: Activity hAPJ SPA EC50 IP
Protocol: The human APJ receptor was cloned by polymerase chain reaction and the gene encoding the receptor was subcloned in pFLAG-CMV™-3 expression vector (Sigma, Saint Louis, Mo. USA) in-house at Amgen. A GTPγS binding assay was performed on membranes prepared from CHO cells stably expressing human APJ receptor. The optimum experimental conditions for the concentrations of GDP, MgCl2, and NaCl in the assay buffer were initially determined. The assay was performed in assay buffer [20 mM HEPES, pH 7.5, 5 mM MgCl2, and 0.1% (w/v) BSA with 200 mM NaCl, 3 μM GDP] and membranes expressing human APJ receptor/well along with WGA PS beads. The reaction was initiated by addition of 0.2 nM [^35S]GTPγS (Perkin Elmer Life and Analytical Sciences, Waltham USA) in the absence or presence of various ligands and incubated at RT for 90 min. Nonspecific binding was determined in the presence of 100 μM GTPγS and was always less than 0.2% of total binding. All the results presented are means of several independent experiments and analyzed by non-linear regression methods using commercially available program Prism (GraphPad, San Diego, Calif.) to obtain EC50 detailed in Table 26.

APJ receptor, sequence (P35414 whole entry): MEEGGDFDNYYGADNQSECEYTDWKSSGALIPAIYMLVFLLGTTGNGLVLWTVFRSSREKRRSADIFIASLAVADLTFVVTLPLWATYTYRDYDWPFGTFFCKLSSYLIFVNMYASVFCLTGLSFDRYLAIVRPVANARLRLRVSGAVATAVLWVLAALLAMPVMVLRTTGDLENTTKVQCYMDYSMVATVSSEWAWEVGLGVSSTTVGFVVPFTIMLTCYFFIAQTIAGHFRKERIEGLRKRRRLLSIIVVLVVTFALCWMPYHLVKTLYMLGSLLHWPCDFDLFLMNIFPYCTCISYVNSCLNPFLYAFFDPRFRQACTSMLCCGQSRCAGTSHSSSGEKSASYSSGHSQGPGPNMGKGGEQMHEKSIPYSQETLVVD

EC50 [nM]	SMILES
0.28	COc1cccc(OC)c1-n1c(NS(=O)(=O)[C@@H](C)Cc2ncc(Cl)cc2C#N)nnc1-c1ccco1 (mixture of isomers) [Example 18.0, (2S)-1-(5-chloro-3-cyano-2-pyridinyl)-N-(4-(2,6-dimethoxyphenyl)-5-(2-furanyl)-4H-1,2,4-triazol-3-yl)-2-propanesulfonamide and (2R)-1-(5-chloro-3-cyano-2-pyridinyl)-N-(4-(2,6-dimethoxyphenyl)-5-(2-furanyl)-4H-1,2,4-triazol-3-yl)-2-propanesulfonamide]
230	C[C@@H](Cc1ncc(F)cn1)S(=O)(=O)Nc1nnc(-c2ccco2)n1-c1cccc2ccccc12 (mixture of isomers) [Example 314.0, (2R)-1-(5-Fluoro-2-pyrimidinyl)-N-(5-(2-furanyl)-4-(1-naphthalenyl)-4H-1,2,4-triazol-3-yl)-2-propanesulfonamide and (2S)-1-(5-fluoro-2-pyrimidinyl)-N-(5-(2-furanyl)-4-(1-naphthalenyl)-4H-1,2,4-triazol-3-yl)-2-propanesulfonamide]
270	COc1ccc(-n2c(NS(=O)(=O)[C@@H](C)Cc3ncc(F)cn3)nnc2-c2ccco2)c(OC)c1 (mixture of isomers) [Example 315.0, (2R)—N-(4-(2,4-Dimethoxyphenyl)-5-(2-furanyl)-4H-1,2,4-triazol-3-yl)-1-(5-fluoro-2-pyrimidinyl)-2-propanesulfonamide and (2S)—N-(4-(2,4-dimethoxyphenyl)-5-(2-furanyl)-4H-1,2,4-triazol-3-yl)-1-(5-fluoro-2-pyrimidinyl)-2-propanesulfonamide]
0.19	COc1cccc(OC)c1-n1c(NS(=O)(=O)[C@@H](C)Cc2ncc(Cl)cc2NC(C)=O)nnc1-c1ccco1 (racemic) [Example 13.0, N-(5-chloro-2-((2S)-2-((4-(2,6-dimethoxyphenyl)-5-(2-furanyl)-4H-1,2,4-triazol-3-yl)sulfamoyl)propyl)-3-pyridinyl)acetamide and N-(5-chloro-2-((2R)-2-((4-(2,6-dimethoxyphenyl)-5-(2-furanyl)-4H-1,2,4-triazol-3-yl)sulfamoyl)propyl)-3-pyridinyl)acetamide]
0.2	COc1cccc(OC)c1-n1c(NS(=O)(=O)[C@@H](C)Cc2ccc(Cl)cn2)nnc1-c1ccco1 (racemic) [Example 14.0, (2R)-1-(5-chloro-2-pyridinyl)-N-(4-(2,6-dimethoxyphenyl)-5-(2-furanyl)-4H-1,2,4-triazol-3-yl)-2-propanesulfonamide and (2S)-1-(5-chloro-2-pyridinyl)-N-(4-(2,6-dimethoxyphenyl)-5-(2-furanyl)-4H-1,2,4-triazol-3-yl)-2-propanesulfonamide]
0.48	COc1cccc(OC)c1-n1c(NS(=O)(=O)[C@H](C)Cc2ncc(F)cc2NC(C)=O)nnc1-c1ccco1 (racemic) [Example 28.0, N-(2-((2R)-2-((4-(2,6-dimethoxyphenyl)-5-(2-furanyl)-4H-1,2,4-triazol-3-yl)sulfamoyl)propyl)-5-fluoro-3-pyridinyl)acetamide and N-(2-((2S)-2-((4-(2,6-dimethoxyphenyl)-5-(2-furanyl)-4H-1,2,4-triazol-3-yl)sulfamoyl)propyl)-5-fluoro-3-pyridinyl)acetamide]
0.54	COCC[C@@H]([C@H](C)c1ncc(F)cn1)S(=O)(=O)Nc1nnc(-c2ccc(C)o2)n1-c1c(OC)cccc1OC (racemic) [Example 74.0]

Further lines, the compound ahead of its results:

SMILES	EC50 [nM]
COc1cccc(OC)c1-n1c(NS(=O)(=O)C[C@@H](C)c2ncc(F)cn2)nnc1-c1ccco1 (mixture of isomers) [Example 129.0, (S)-N-(4-(2,6-dimethoxyphenyl)-5-(furan-2-yl)-4H-1,2,4-triazol-3-yl)-2-(5-fluoropyrimidin-2-yl)propane-1-sulfonamide and (R)-N-(4-(2,6-dimethoxyphenyl)-5-(furan-2-yl)-4H-1,2,4-triazol-3-yl)-2-(5-fluoropyrimidin-2-yl)propane-1-sulfonamide]	3.3
COc1cccc(OC)c1-n1c(NS(=O)(=O)CCN2C(=O)N(C)CC[C@H]2C)nnc1-c1ccc(C)o1 (mixture of isomers) [Example 160.0, N-(4-(2,6-Dimethoxyphenyl)-5-(5-methyl-2-furanyl)-4H-1,2,4-triazol-3-yl)-2-((6R)-3,6-dimethyl-2-oxotetrahydro-1 (2H)-pyrimidinyl)ethanesulfonamide and N-(4-(2,6-dimethoxyphenyl)-5-(5-methyl-2-furanyl)-4H-1,2,4-triazol-3-yl)-2-((6S)-3,6-dimethyl-2-oxotetrahydro-1(2H)-pyrimidinyl)ethanesulfonamide]	0.5
COc1cccc(OC)c1-n1c(NS(=O)(=O)[C@@H](C)[C@H](O)c2cn(C)cn2)nnc1-c1ccc(C)o1.COc1cccc(OC)c1-n1c(NS(=O)(=O)[C@H](C)[C@@H](O)c2cn(C)cn2)nnc1-c1ccc(C)o1 (mixture of isomers) [Example 301.0, (1R,2S)—N-(4-(2,6-Dimethoxyphenyl)-5-(5-methyl-2-furanyl)-4H-1,2,4-triazol-3-yl)-1-hydroxy-1-(1-methyl-1H-imidazol-4-yl)-2-propanesulfonamide and (1S,2R)—N-(4-(2,6-dimethoxyphenyl)-5-(5-methyl-2-furanyl)-4H-1,2,4-triazol-3-yl)-1-hydroxy-1-(1-methyl-1H-imidazol-4-yl)-2-propanesulfonamide]	13
COc1ccccc1-n1c(NS(=O)(=O)[C@@H](C)Cc2ncc(F)cn2)nnc1-c1ccco1.COc1ccccc1-n1c(NS(=O)(=O)[C@H](C)Cc2ncc(F)cn2)nnc1-c1ccco1 (mixture of isomers) [Example 310.0, (2S)-1-(5-Fluoro-2-pyrimidinyl)-N-(5-(2-furanyl)-4-(2-methoxyphenyl)-4H-1,2,4-triazol-3-yl)-2-propanesulfonamide and (2R)-1-(5-fluoro-2-pyrimidinyl)-N-(5-(2-furanyl)-4-(2-methoxyphenyl)-4H-1,2,4-triazol-3-yl)-2-propanesulfonamide]	83
C[C@@H](Cc1ncc(F)cn1)S(=O)(=O)Nc1nnc(-c2ccco2)n1C1CCCCC1.C[C@H](Cc1ncc(F)cn1)S(=O)(=O)Nc1nnc(-c2ccco2)n1C1CCCCC1 (mixture of isomers) [Example 313.0, (2R)—N-(4-Cyclohexyl-5-(2-furanyl)-4H-1,2,4-triazol-3-yl)-1-(5-fluoro-2-pyrimidinyl)-2-propanesulfonamide and (2S)—N-(4-cyclohexyl-5-(2-furanyl)-4H-1,2,4-triazol-3-yl)-1-(5-fluoro-2-pyrimidinyl)-2-propanesulfonamide]	230
COc1cccc(OC)c1-n1c(NS(=O)(=O)[C@@H]2C[C@H](O)CN(c3cnc(Cl)c(C#N)c3)C2)nnc1-c1ccc(C)o1 (mixture of isomers) [Example 322.0, (3S,5R)-1-(6-Chloro-5-cyano-3-pyridinyl)-N-(4-(2,6-dimethoxyphenyl)-5-(5-methyl-2-furanyl)-4H-1,2,4-triazol-3-yl)-5-hydroxy-3-piperidinesulfonamide and (3R,5S)-1-(6-chloro-5-cyano-3-pyridinyl)-N-(4-(2,6-dimethoxyphenyl)-5-(5-methyl-2-furanyl)-4H-1,2,4-triazol-3-yl)-5-hydroxy-3-piperidinesulfonamide]	0.2
COc1ccnc(N2C[C@H](O)C[C@H](S(=O)(=O)Nc3nnc(-c4ccc(C)o4)n3-c3c(OC)cccc3OC)C2)n1 (mixture of isomers) [Example 324.0, (3S,5R)—N-(4-(2,6-Dimethoxyphenyl)-5-(5-methyl-2-furanyl)-4H-1,2,4-triazol-3-yl)-5-hydroxy-1-(4-methoxy-2-pyrimidinyl)-3-piperidinesulfonamide and (3R,5S)—N-(4-(2,6-dimethoxyphenyl)-5-(5-methyl-2-furanyl)-4H-1,2,4-triazol-3-yl)-5-hydroxy-1-(4-methoxy-2-pyrimidinyl)-3-piperidinesulfonamide]	0.21
COc1cccc(OC)c1-n1c(NS(=O)(=O)[C@H]2C[C@@H](O)CN(c3ncc(F)cc3C#N)C2)nnc1-c1ccc(C)o1 (mixture of isomers) [Example 330.0, (3S,5R)-1-(3-Cyano-5-fluoro-2-pyridinyl)-N-(4-(2,6-dimethoxyphenyl)-5-(5-methyl-2-furanyl)-4H-1,2,4-triazol-3-yl)-5-hydroxy-3-piperidinesulfonamide and (3R,5S)-1-(3-cyano-5-fluoro-2-pyridinyl)-N-(4-(2,6-dimethoxyphenyl)-5-(5-methyl-2-furanyl)-4H-1,2,4-triazol-3-yl)-5-hydroxy-3-piperidinesulfonamide]	0.43
COc1cccc(OC)c1-n1c(NS(=O)(=O)[C@@H]2CCCN(C(=O)N(C)C)C2)nnc1-c1ccco1.COc1cccc(OC)c1-n1c(NS(=O)(=O)[C@H]2CCCN(C(=O)N(C)C)C2)nnc1-c1ccco1 (mixture of isomers) [Example 338.0, (R)-3-(N-(4-(2,6-Dimethoxyphenyl)-5-(furan-2-yl)-4H-1,2,4-triazol-3-yl)sulfamoyl)-N,N-dimethylpiperidine-1-carboxamide and (S)-3-(N-(4-(2,6-dimethoxyphenyl)-5-(furan-2-yl)-4H-1,2,4-triazol-3-yl)sulfamoyl)-N,N-dimethylpiperidine-1-carboxamide]	19
